Experimental data from article PMC10584170, “Machine learning-based phenotypic imaging to characterise the targetable biology of Plasmodium falciparum male gametocytes for the development of transmission-blocking antimalarials” (PLOS Pathogens, 2023).
pIC50: −log10 of the molar value. Like-named read-outs stand apart in the source and are kept apart here.

Assays:
[1] = system: P. falciparum male gametocytes; assay: P. falciparum Dual Gamete Formation Assay (PfDGFA), male readout (exflagellation); format: cell-based, Plasmodium falciparum NF54; settings: for Selectivity Ratio M: HepG2 Tox50 versus male IC50; for pIC50: read-out: Male IC50; for HitlevelM: number of replicates with >50% inhibition in the male readout
In short: (§1)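 Male and female gamete formation were quantified by microscopy image analysis following 24 h incubation of mature NF54 gametocytes with compound and activation at 28°C with xanthurenic acid.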

[2] = system: P. falciparum female gametocytes; assay: P. falciparum Dual Gamete Formation Assay (PfDGFA), female readout (Pfs25-positive female gametes); format: cell-based, Plasmodium falciparum NF54; settings: for Selectivity ratio F: HepG2 Tox50 versus female IC50; for pIC50: read-out: Female IC50; for HitlevelF: number of replicates with >50% inhibition in the female readout
In short: as §1

[3] = system: HepG2 cells; assay: HepG2 cytotoxicity counter-screen; settings: cytotoxic activity against HepG2 cells
[4] = 2µM, 24h preincubation with gametocytes, average of replicates
[5] = 2µM, 24h preincubation with gametocytes, replicate R1
[6] = 2µM, 24h preincubation with gametocytes, replicate R3
[7] = 2µM, 24h preincubation with gametocytes, replicate R4
[8] = PfDGFA, 24 h incubation with gametocytes before induction, exflagellation readout
[9] = PfDGFA, 24 h incubation with gametocytes before induction, female gamete readout
[10] = PfDGFA at 2µM, 24h preincubation with gametocytes, average of replicates
[11] = PfDGFA at 2µM, 24h preincubation with gametocytes, replicate R1
[12] = PfDGFA at 2µM, 24h preincubation with gametocytes, replicate R3
[13] = PfDGFA at 2µM, 24h preincubation with gametocytes, replicate R4

Compound | pIC50 [1, 8] | pIC50 [2, 9] | Average inhibition male (%) [1, 4] [%] | % inhibition male (individual replicates) R1 [1, 5] [%] | % inhibition male (individual replicates) R3 [1, 6] [%] | % inhibition male (individual replicates) R4 [1, 7] [%] | Selectivity Ratio M [1] | Average inhibition female (%) [2, 4] [%] | Selectivity ratio F [2] | Tox50 [3] [µM] | Average inhibition male (%) [1, 10] [%] | % inhibition male (individual replicates) R1 [1, 11] [%] | % inhibition male (individual replicates) R3 [1, 12] [%] | % inhibition male (individual replicates) R4 [1, 13] [%] | HitlevelM ([1]; 2µM) | Average inhibition female (%) [2, 10] [%] | % inhibition female (individual replicates) R1 [2, 11] [%] | % inhibition female (individual replicates) R3 [2, 12] [%] | % inhibition female (individual replicates) R4 [2, 13] [%] | HitlevelF ([2]; 2µM) | also measured
CS(=O)(=O)O.CSc1ccc2ccccc2c1CCNCCCCNCCc1c(SC)ccc2ccccc12 [TCMDC-137763] | 5.85 | 5.68 | 90.7 | 94.6 | 73.0 | 98.9 | 2.67 | 55.5 | 1.79 | 3.73 | – | – | – | – | – | – | – | – | – | – | % inhibition female (individual replicates) R1 [2, 5]: 47.6%; % inhibition female (individual replicates) R3 [2, 6]: 28.5%; % inhibition female (individual replicates) R4 [2, 7]: 71.9%
CCC1=C[C@@H]2CN(C1)Cc1c([nH]c3ccccc13)[C@@](C(=O)OC)(c1cc3c(cc1OC)N(C)[C@H]1[C@@](O)(C(=O)OC)[C@H](O)[C@]4(CC)C=CCN5CC[C@]31[C@@H]54)C2.O=S(=O)(O)O [TCMDC-137769] | – | – | – | – | – | – | 5697.96 | – | 5.57 | 55.68 | – | – | – | – | – | – | – | – | – | – | pIC50 ([1]; Plasmodium falciparum, 24 h): 8.00; inhibition at 2 µM ([1]; Plasmodium falciparum, read-out: % inhibition male (individual replicates) R1): 101%; inhibition at 2 µM ([1]; Plasmodium falciparum, read-out: % inhibition male (individual replicates) R2): 99.3%; inhibition at 2 µM ([1]; Plasmodium falciparum, read-out: % inhibition male (individual replicates) R4): 103%; inhibition at 2 µM ([1]; Plasmodium falciparum, read-out: Average inhibition male (%)): 101%; pIC50 ([2]; Plasmodium falciparum, 24 h): < 5.00; inhibition at 2 µM ([2]; Plasmodium falciparum, read-out: % inhibition female (individual replicates) R1): 4.8%; inhibition at 2 µM ([2]; Plasmodium falciparum, read-out: % inhibition female (individual replicates) R2): -7.3%; inhibition at 2 µM ([2]; Plasmodium falciparum, read-out: % inhibition female (individual replicates) R3): 2.7%; inhibition at 2 µM ([2]; Plasmodium falciparum, read-out: % inhibition female (individual replicates) R4): 9.5%; inhibition at 2 µM ([2]; Plasmodium falciparum, read-out: Average inhibition female (%)): 2.4%
COc1ccc2ccc(OC)c(CNCCCCCCNCc3c(OC)ccc4ccc(OC)cc34)c2c1.CS(=O)(=O)O [TCMDC-137796] | 5.84 | 5.44 | 93.5 | 89.3 | 82.0 | 102.2 | 2.84 | 38.4 | 1.12 | 4.07 | – | – | – | – | – | – | – | – | – | – | % inhibition female (individual replicates) R1 [2, 5]: 29.7%; % inhibition female (individual replicates) R3 [2, 6]: 9.8%; % inhibition female (individual replicates) R4 [2, 7]: 40.9%
Br.c1cc(C2=NC3CCCCC3N2)ccc1OCCCOc1ccc(C2=NC3CCCCC3N2)cc1 (centres unmarked) [TCMDC-137803] | – | – | – | – | – | – | 32.57 | – | 3.68 | 36.78 | – | – | – | – | – | – | – | – | – | – | inhibition at 2 µM ([1]; Plasmodium falciparum, 2µM, 24h preincubation with gametocytes, average of replicates, read-out: Average inhibition male (%)): 96.1%; inhibition at 2 µM ([1]; Plasmodium falciparum, 2µM, 24h preincubation with gametocytes, replicate R1, read-out: % inhibition male (individual replicates) R1): 93.1%; inhibition at 2 µM ([1]; Plasmodium falciparum, 2µM, 24h preincubation with gametocytes, replicate R2, read-out: % inhibition male (individual replicates) R2): 96.3%; inhibition at 2 µM ([1]; Plasmodium falciparum, 2µM, 24h preincubation with gametocytes, replicate R3, read-out: % inhibition male (individual replicates) R3): 92.1%; inhibition at 2 µM ([1]; Plasmodium falciparum, 2µM, 24h preincubation with gametocytes, replicate R4, read-out: % inhibition male (individual replicates) R4): 103%; pIC50 ([1]; Plasmodium falciparum, PfDGFA, 24 h incubation with gametocytes before induction, exflagellation readout): 5.95; inhibition at 2 µM ([2]; Plasmodium falciparum, 2µM, 24h preincubation with gametocytes, average of replicates, read-out: Average inhibition female (%)): 39.4%; inhibition at 2 µM ([2]; Plasmodium falciparum, 2µM, 24h preincubation with gametocytes, replicate R1, read-out: % inhibition female (individual replicates) R1): 33.6%; inhibition at 2 µM ([2]; Plasmodium falciparum, 2µM, 24h preincubation with gametocytes, replicate R2, read-out: % inhibition female (individual replicates) R2): 49.2%; inhibition at 2 µM ([2]; Plasmodium falciparum, 2µM, 24h preincubation with gametocytes, replicate R3, read-out: % inhibition female (individual replicates) R3): 5.9%; inhibition at 2 µM ([2]; Plasmodium falciparum, 2µM, 24h preincubation with gametocytes, replicate R4, read-out: % inhibition female (individual replicates) R4): 68.9%; pIC50 ([2]; Plasmodium falciparum, PfDGFA, 24 h incubation with gametocytes before induction, female gamete readout): < 5.00
Nc1nc(N)c2c(ccc3c2ccn3Cc2ccc3c(c2)OCO3)n1 [TCMDC-137808] | 6.12 | 6.08 | – | – | – | – | 0.19 | – | 0.18 | 0.15 | 70.0 | 66.3 | 77.8 | 76.3 | 4 | 83.7 | 77.5 | 80.4 | 88.7 | 4 | –
CS(=O)(=O)O.FC(F)(F)COc1c(CNCCCCCCNCc2ccc3ccccc3c2OCC(F)(F)F)ccc2ccccc12 [TCMDC-137833] | 5.76 | 5.18 | – | – | – | – | 1.9 | – | 0.51 | 3.32 | 69.2 | 70.5 | 47.4 | 77.6 | 3 | 29.5 | 27.4 | 10.4 | 40.2 | 0 | –

Second part, led by results:

pIC50 [1, 8] | pIC50 [2, 9] | Compound | Average inhibition male (%) [1, 4] [%] | % inhibition male (individual replicates) R1 [1, 5] [%] | % inhibition male (individual replicates) R3 [1, 6] [%] | % inhibition male (individual replicates) R4 [1, 7] [%] | Selectivity Ratio M [1] | Average inhibition female (%) [2, 4] [%] | Selectivity ratio F [2] | Tox50 [3] [µM] | Average inhibition male (%) [1, 10] [%] | % inhibition male (individual replicates) R1 [1, 11] [%] | % inhibition male (individual replicates) R3 [1, 12] [%] | % inhibition male (individual replicates) R4 [1, 13] [%] | HitlevelM ([1]; 2µM) | Average inhibition female (%) [2, 10] [%] | % inhibition female (individual replicates) R1 [2, 11] [%] | % inhibition female (individual replicates) R3 [2, 12] [%] | % inhibition female (individual replicates) R4 [2, 13] [%] | HitlevelF ([2]; 2µM) | also measured
6.96 | 6.01 | CC(=NNC(=S)NC(C)(C)C)c1ccccn1 [TCMDC-137783] | 101.1 | 99.9 | 98.6 | 104.2 | 0.9 | 58.4 | 0.11 | 0.1 | – | – | – | – | – | – | – | – | – | – | % inhibition female (individual replicates) R1 [2, 5]: 41.7%; % inhibition female (individual replicates) R3 [2, 6]: 38.4%; % inhibition female (individual replicates) R4 [2, 7]: 72.1%
6.33 | 5.99 | Nc1nc(N)c2c(ccc3c2ccn3Cc2ccc(-c3ccccc3)cc2)n1 [TCMDC-137813] | – | – | – | – | 0.97 | – | 0.44 | 0.46 | 70.1 | 91.2 | 64.2 | 76.3 | 3 | 90.5 | 93.6 | 92.9 | 90.8 | 4 | –
5.73 | 5.54 | C#CCCOc1ccc2ccccc2c1CNCCCCCCNCc1c(OCCC#C)ccc2ccccc12 [TCMDC-137832] | – | – | – | – | 2.13 | – | 1.37 | 3.94 | 78.9 | 82.1 | 58.7 | 86.2 | 4 | 22.9 | 24.2 | 11.7 | 20.0 | 0 | –
